In experiment [1] the test system is antibody core fucosylation. Briefly: Inhibition of antibody core fucosylation by fucose analogs. It counts as cell-based. The text has this: Methods of determining whether a fucose analog is capable of having an effect on antibody core fucosylation is provided in WO 2012/019165.
The test system of a further experiment is NF-κB phospho-p65. Briefly: Western blot of NF-κB phospho-p65 in liver nuclear extracts of sickle cell mice. The settings on record: heme-treated mice. It counts as in vivo, NY1DD sickle cell mice. As for the experimental part:
NY1DD sickle cell mice were given plain water or 20 or 100 mM 2-fluorofucose in their drinking water ad libitum for 7 days. The treatment and control group had four mice per treatment group. On day 7, the mice were sacrificed with CO2. An EDTA blood sample was collected from the heart and the liver was removed and frozen in liquid nitrogen. Total white blood cell counts and differentials were performed by manual counting using a hemocytometer and Wright-stained blood smears, respectively. Nuclear extracts were prepared from nuclei isolated from liver homogenates. Western blots of the nuclear extracts were immunostained with antibodies to NF-κB phospho-p65 a marker of NF-κB activation.
On the technique in general: Immunoblotting shows a protein as a band on a membrane.

Where [2] appears, read: Table 2, 50 μM analog, read-out: Inhibition at 50 μM.
Setting [3] is: Table 1, 50 μM analog, read-out: Inhibition at 50 μM.

The record followed here is patent US10350228B2, “Treatment of sickle cell disease and inflammatory conditions” (Seattle Genetics, Inc., priority 2012, dated 2019).

Like-named read-outs stand apart in the source and are kept apart here. Bounds are passed on as bounds.

One may read the inhibition as the drop in the measured response relative to a control, in per cent. By Inhibition is commonly meant the relative decrease from the control value, in per cent. The low end stands for little suppression, the high end for strong suppression. With 2-deoxy-2-fluorofucose diacetate, the “inhibition at 50 µM” value in experiment [1] (Table 2, 50 μM analog) is listed as more than 80%. For the same molecule, the “Inhibition at 1 mM” value in experiment [1] (Table 2, 1 mM analog) is more than 80%.

2-deoxy-2-fluorofucose peracetate: the “inhibition at 50 µM” value in experiment [1] (Table 2, 50 μM analog) is recorded as more than 80%. Further, in experiment [1] (Table 2, 1 mM analog), the “Inhibition at 1 mM” value was more than 80%.

Turning to 5-Benzyloxy fucose peracetate, the “inhibition at 50 µM” value in experiment [1] (Table 2, 50 μM analog) was determined as 0%. Also, in experiment [1] (Table 2, 1 mM analog), the “Inhibition at 1 mM” value is 75%.

For the molecule `CC(=O)OC1C(C)OC(F)C(F)C1OC(C)=O` (stereo not shown) [1,2-difluoro-1,2-didexoy fucose peracetate], in experiment [1] (Table 2, 50 μM analog), the “inhibition at 50 µM” value is given as more than 80%. In addition, the “Inhibition at 1 mM” value in experiment [1] (Table 2, 1 mM analog) is more than 80%.

Take `C#C[C@H](OC(C)=O)[C@H]1OC(OC)[C@@H](OC(C)=O)[C@@H]1OC(C)=O` (stereo partly shown) [1-methyl-2,3,4-triacetyl alkynyl fucose]: in experiment [1] (Table 1, 50 μM analog), the “inhibition at 50 µM” value is 68%. Also, the “Inhibition at 1 mM” value in experiment [1] (Table 1, 1 mM analog) is listed as more than 80%.

Take `CC(=O)OC1O[C@@H](C)[C@@H](OC(C)=O)[C@@H](OC(C)=O)C1(F)F` (stereo partly drawn) [2-deoxy-2,2-difluorofucopyranose triacetate (beta)]: the “inhibition at 50 µM” value in experiment [1] (Table 2, 50 μM analog) came to 0%. Also, in experiment [1] (Table 2, 1 mM analog), the “Inhibition at 1 mM” value was determined as 75%.

For `CC(=O)OC1O[C@@H](C)[C@@H](OC(C)=O)[C@@H](OC(C)=O)C1(F)F` (stereo partly shown) [2-deoxy-2,2-difluorofucopyranose triacetate], the inhibition at 50 µM in experiment [1] (setting [2]) came to 0%. Further, in experiment [1] (Table 2, 1 mM analog), the inhibition at 1000 µM was found to be 64%.

In the case of `CC(=O)OC(C#N)[C@H]1OC(OC(C)=O)[C@@H](OC(C)=O)[C@@H]1OC(C)=O` (stereo partly shown) [5-cyanoarabinofuranose tetraacetate], the inhibition at 50 µM in experiment [1] (setting [3]) is 5 to 10%.

In the case of `CC(=O)OC1OC(C#N)[C@@H](OC(C)=O)[C@@H](OC(C)=O)[C@@H]1OC(C)=O` (stereo partly shown) [5-cyanoarabinopyranose tetraacetate], the inhibition at 50 µM in experiment [1] (setting [3]) amounted to 20%.

Regarding `CC(=O)OC1O[C@@H]([C@]2(C)CO2)[C@@H](OC(C)=O)[C@@H](OC(C)=O)[C@@H]1OC(C)=O` (stereo partly drawn) [5-methyloxiran-arabinose tetraacetate, (3S,4R,5S,6R)-6-((S)-2-methyloxiran-2-yl)-tetrahydro-2H-pyran-2,3,4,5-tetrayl tetraacetate], in experiment [1] (setting [3]), the inhibition at 50 µM was approximately 0%. This molecule also gave an inhibition at 1000 µM in experiment [1] (Table 1, 1 mM analog) of 35 to 40%.

As to `CC#CC(OC(C)=O)[C@@H](OC(C)=O)[C@@H](OC(C)=O)[C@@H](C=O)OC(C)=O` (stereo partly shown) [5-propynyl fucose tetraacetate, 5-propynylarabinose tetraacetate], the inhibition at 50 µM in experiment [1] (setting [3]) was determined as 50%. This molecule also showed an inhibition at 1000 µM in experiment [1] (Table 1, 1 mM analog) of more than 80%.

Consider `C=CC1OC(OC(C)=O)C(OC(C)=O)C(OC(C)=O)C1OC(C)=O` (stereo not shown) [5-vinyl fucose tetraacetate, 5-ethylenylarabinose tetraacetate], for which the “inhibition at 50 µM” value in experiment [1] (Table 1, 50 μM analog) was approximately 0%. Further, the “Inhibition at 1 mM” value in experiment [1] (Table 1, 1 mM analog) was approximately 4%.

Consider `CC(=O)O[C@H]([C@H](OC(C)=O)[C@@H](OC(C)=O)C(F)F)[C@@H](C=O)OC(C)=O` [6,6-difluorofucose tetraacetate], for which the inhibition at 50 µM in experiment [1] (setting [2]) is more than 80%. This molecule registered an inhibition at 1000 µM in experiment [1] (Table 2, 1 mM analog) of more than 80%.

For the molecule `CC(=O)O[C@H]([C@H](OC(C)=O)[C@H](CBr)OC(C)=O)[C@@H](C=O)OC(C)=O` [6-bromo-fucose tetraacetate, 6-bromofucose tetraacetate], the inhibition at 50 µM in experiment [1] (setting [3]) was 50%. The molecule also registered an inhibition at 1000 µM in experiment [1] (Table 1, 1 mM analog) of 80%.

`CC(=O)O[C@H]([C@H](OC(C)=O)[C@H](CCl)OC(C)=O)[C@@H](C=O)OC(C)=O` [6-chloro-fucose tetraacetate, 6-chlorofucose tetraacetate]: in experiment [1] (setting [3]), the inhibition at 50 µM was 20%. Moreover, the inhibition at 1000 µM in experiment [1] (Table 1, 1 mM analog) was in the range of 20 to 30%.

Regarding `CC(=O)O[C@H]([C@H](OC(C)=O)[C@H](CC#N)OC(C)=O)[C@@H](C=O)OC(C)=O` [6-cyano fucose tetraacetate, 6-cyanofucose tetraacetate], in experiment [1] (setting [3]), the inhibition at 50 µM is 30%. The molecule further displayed an inhibition at 1000 µM in experiment [1] (Table 1, 1 mM analog) of more than 80%.

As for `CC(=O)O[C@H]([C@H](OC(C)=O)[C@H](CI)OC(C)=O)[C@@H](C=O)OC(C)=O` [6-iodo-fucose tetraacetate, 6-iodofucose tetraacetate], the inhibition at 50 µM in experiment [1] (setting [3]) was found to be 3%. Further, the inhibition at 1000 µM in experiment [1] (Table 1, 1 mM analog) is 30%.

Take `CC(=O)OC1CC(OC(C)=O)C(OC(C)=O)C(C)O1` (stereo not shown) [6-methyl-tetrahydro-2H-pyran-2,4,5-triyl triacetate]: in experiment [1] (setting [2]), the inhibition at 50 µM was determined as 0%. In experiment [1] (Table 2, 1 mM analog), this molecule registered an inhibition at 1000 µM of 36%.

With `C#CC1OC(OC(=O)C(C)(C)C)C(OC(=O)C(C)(C)C)C(OC(=O)C(C)(C)C)C1O` (stereo not shown) [Alkynyl fucose 1,2,3-(trimethylacetate), 5-ethynylarabinose 1,2,3-(trimethylacetate)], the “inhibition at 50 µM” value in experiment [1] (Table 1, 50 μM analog) is reported as approximately 0%.

For `C#CC1OC(OC(=O)C(C)(C)C)C(O)C(OC(=O)C(C)(C)C)C1O` (stereo not shown) [Alkynyl fucose di(trimethylacetate), 5-ethynylarabinose 1,3-(trimethylacetate)], the “inhibition at 50 µM” value in experiment [1] (Table 1, 50 μM analog) is on record as more than 80%.

With `C#CC(OC(C)=O)[C@@H](OC(C)=O)[C@@H](OC(C)=O)[C@@H](C=O)OC(C)=O` (stereo partly shown) [Alkynyl fucose peracetate, 5-ethynylarabinose tetraacetate], the inhibition at 50 µM in experiment [1] (setting [3]) is more than 80%. Also, in experiment [1] (Table 1, 1 mM analog), the inhibition at 1000 µM was more than 80%.

For `C#C[C@@H]1OC(OC(=O)C(C)C)[C@@H](OC(=O)C(C)C)[C@H](OC(=O)C(C)C)[C@@H]1OC(=O)C(C)C` (stereo partly shown) [Alkynyl fucose perisobutanoate], in experiment [1] (Table 1, 50 μM analog), the “inhibition at 50 µM” value is given as more than 80%. Also, the “Inhibition at 1 mM” value in experiment [1] (Table 1, 1 mM analog) was more than 80%.

For `C#C[C@H]1OC(OC(=O)c2ccncc2)[C@@H](OC(=O)c2ccncc2)[C@H](OC(=O)c2ccncc2)[C@@H]1OC(=O)c1ccncc1` (stereo partly shown) [Alkynyl fucose perisonicotinate], the “inhibition at 50 µM” value in experiment [1] (Table 1, 50 μM analog) is given as more than 80%. For the same molecule, the “Inhibition at 1 mM” value in experiment [1] (Table 1, 1 mM analog) is given as more than 80%.

For the molecule `C#CC1OC(OC(=O)c2cccnc2)C(OC(=O)c2cccnc2)C(OC(=O)c2cccnc2)C1OC(=O)c1cccnc1` (stereo not shown) [Alkynyl fucose pernicotinate], in experiment [1] (Table 1, 50 μM analog), the “inhibition at 50 µM” value was more than 80%. Moreover, the “Inhibition at 1 mM” value in experiment [1] (Table 1, 1 mM analog) is recorded as more than 80%.

Take `C#CC(OC(=O)CCCCC)[C@@H](OC(=O)CCCCC)[C@@H](OC(=O)CCCCC)[C@@H](C=O)OC(=O)CCCCC` (stereo partly shown) [Alkynyl fucose tetra-n-hexanoate, 5-ethynylarabinose tetrahexanoate]: the inhibition at 50 µM in experiment [1] (setting [3]) was more than 80%. This molecule had an inhibition at 1000 µM in experiment [1] (Table 1, 1 mM analog) of more than 80%.

`C#C[C@@H]1OC(OC(=O)CC)[C@@H](OC(=O)CC)[C@H](OC(=O)CC)[C@@H]1OC(=O)CC` (stereo partly shown) [Alkynyl fucose tetrapropanonate, 5-ethynylarabinose tetrapropropanoate]: the “inhibition at 50 µM” value in experiment [1] (Table 1, 50 μM analog) is on record as more than 80%. Also, the “Inhibition at 1 mM” value in experiment [1] (Table 1, 1 mM analog) is on record as more than 80%.

`C#CC(O)[C@@H](O)[C@@H](O)[C@H](O)C=O` (stereo partly shown) [Alkynyl fucose, 5-ethynylarabinose]: the inhibition at 50 µM in experiment [1] (setting [3]) was more than 80%.

For `C#CC[C@@H]1OC(OC(C)=O)[C@@H](OC(C)=O)[C@H](OC(C)=O)[C@@H]1OC(C)=O` (stereo partly drawn) [propargyl fucose tetraacetate, (3S,4R,5R,6S)-6-(prop-2-ynyl)-tetrahydro-2H-pyran-2,3,4,5-tetrayl tetraacetate], in experiment [1] (setting [3]), the inhibition at 50 µM is approximately 10%. Moreover, the inhibition at 1000 µM in experiment [1] (Table 1, 1 mM analog) was in the range of 10 to 20%.

In the case of hemin [heme, reference compound], the “Nuclear NF-κB phospho-p65 in liver” value with NF-κB phospho-p65 was “markedly decreased”.
